Assay results reported in patent US9050341B2, “Methods of treating drug resistant and other tumors by administering 6,7-dialkoxy quinazoline derivatives” (NATCO PHARMA LIMITED, priority 2009, dated 2015).

Key:
Assay in all cases: KinomeScan kinase profiling
Format in all cases: binding
KIT (V559D, T670I) = biological target: T1, KIT (V559D, T670I) (Homo sapiens, UniProt P10721, T670I/V559D)
T1 construct: host or cells: T7 phage in E. coli host derived from BL21
Summary of the method: (§1)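 Kinases were expressed as T7 phage fusions in a BL21-derived E. coli host and the cleared lysates were used. Ligand beads were blocked with biotin and buffer (1% BSA, 0.05% Tween 20, 1 mM DTT). Compounds came from 40× DMSO stocks, and phage in the eluates was titred by qPCR.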

AXL = biological target: T2, AXL (Homo sapiens, UniProt P30530)
T2 construct: purchased Ambit Biosciences Corp (KinomeScan); host or cells: E. coli host derived from the BL21 strain, T7 phage
T2 sequence (P30530 26-894): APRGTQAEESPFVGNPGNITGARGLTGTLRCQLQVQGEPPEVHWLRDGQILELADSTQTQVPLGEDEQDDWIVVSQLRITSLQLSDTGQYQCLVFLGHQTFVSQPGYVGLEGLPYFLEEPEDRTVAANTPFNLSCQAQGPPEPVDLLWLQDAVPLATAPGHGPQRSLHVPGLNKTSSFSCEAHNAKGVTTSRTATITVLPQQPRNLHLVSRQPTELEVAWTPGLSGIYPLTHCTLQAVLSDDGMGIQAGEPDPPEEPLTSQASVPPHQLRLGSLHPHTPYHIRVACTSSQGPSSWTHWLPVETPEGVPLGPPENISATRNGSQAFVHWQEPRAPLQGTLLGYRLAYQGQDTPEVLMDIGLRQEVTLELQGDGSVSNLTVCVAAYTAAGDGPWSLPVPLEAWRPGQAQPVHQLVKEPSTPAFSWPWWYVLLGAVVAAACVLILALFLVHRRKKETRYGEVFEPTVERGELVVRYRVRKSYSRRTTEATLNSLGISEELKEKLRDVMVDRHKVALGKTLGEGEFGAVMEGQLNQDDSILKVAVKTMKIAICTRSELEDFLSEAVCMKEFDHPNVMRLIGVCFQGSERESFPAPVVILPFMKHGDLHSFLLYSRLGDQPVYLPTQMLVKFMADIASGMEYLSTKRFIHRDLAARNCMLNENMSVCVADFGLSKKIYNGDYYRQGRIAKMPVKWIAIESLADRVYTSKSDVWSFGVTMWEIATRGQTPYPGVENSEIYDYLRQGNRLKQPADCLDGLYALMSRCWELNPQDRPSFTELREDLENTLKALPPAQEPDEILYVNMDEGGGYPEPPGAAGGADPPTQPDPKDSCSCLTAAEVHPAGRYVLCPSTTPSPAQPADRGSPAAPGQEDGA
Summary of the method: as §1

ACVR2B = biological target: T3, ACVR2B (Homo sapiens, UniProt Q13705)
T3 construct: host or cells: E. coli host derived from BL21 (T7 phage lysate)
T3 sequence (Q13705 19-512): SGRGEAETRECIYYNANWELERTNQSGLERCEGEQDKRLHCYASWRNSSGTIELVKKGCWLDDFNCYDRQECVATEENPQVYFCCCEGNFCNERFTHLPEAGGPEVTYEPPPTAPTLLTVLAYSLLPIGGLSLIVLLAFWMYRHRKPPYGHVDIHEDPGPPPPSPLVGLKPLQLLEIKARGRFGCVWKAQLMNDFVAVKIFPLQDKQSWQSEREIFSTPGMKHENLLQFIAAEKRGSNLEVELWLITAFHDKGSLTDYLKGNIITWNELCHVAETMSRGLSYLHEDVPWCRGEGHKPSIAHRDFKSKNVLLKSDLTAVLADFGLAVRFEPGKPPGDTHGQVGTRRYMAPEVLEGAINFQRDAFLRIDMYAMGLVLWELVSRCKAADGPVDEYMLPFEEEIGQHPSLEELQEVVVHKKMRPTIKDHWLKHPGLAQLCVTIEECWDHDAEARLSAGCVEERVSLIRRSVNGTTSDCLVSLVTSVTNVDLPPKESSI
Summary of the method: as §1

[1] = biological target: T4, JAK3 (JH1domain-catalytic) (Homo sapiens, UniProt P52333)
T4 construct: JAK3 (JH1domain-catalytic); host or cells: T7 phage in E. coli host derived from BL21
T4 sequence (P52333 822-1111 limits assumed): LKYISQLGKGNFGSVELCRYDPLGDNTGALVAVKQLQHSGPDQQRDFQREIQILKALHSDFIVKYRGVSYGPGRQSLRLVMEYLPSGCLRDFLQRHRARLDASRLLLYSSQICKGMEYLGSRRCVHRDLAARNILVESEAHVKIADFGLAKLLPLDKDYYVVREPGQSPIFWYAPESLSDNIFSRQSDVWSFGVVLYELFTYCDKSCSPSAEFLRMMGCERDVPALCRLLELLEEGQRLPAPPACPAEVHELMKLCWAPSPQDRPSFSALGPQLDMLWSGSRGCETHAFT
Summary of the method: as §1

MINK = biological target: T5, MINK (Homo sapiens, UniProt Q8N4C8)
T5 construct: host or cells: E. coli derived from BL21, infected with T7 phage
Summary of the method: as §1

TNNI3K = biological target: T6, TNNI3K (Homo sapiens, UniProt Q59H18)
T6 construct: purchased Ambit Biosciences Corp (KinomeScan); host or cells: E. coli host derived from the BL21 strain (T7 phage lysate)
Summary of the method: as §1

FGFR4 = biological target: T7, FGFR4 (Homo sapiens, UniProt P22455)
T7 construct: host or cells: E. coli host derived from BL21, infected with T7 phage
Summary of the method: as §1

EGFR (E746-A750del) = biological target: T8, EGFR (E746-A750del) (Homo sapiens, UniProt P00533, DEL746-750)
T8 construct: purchased Ambit Biosciences Corp (KinomeScan); host or cells: T7 phage in E. coli host derived from BL21
Summary of the method: as §1

MERTK = biological target: T9, MERTK (Homo sapiens, UniProt Q12866)
T9 construct: host or cells: E. coli derived from BL21, infected with T7 phage
Summary of the method: as §1

ROCK2 = biological target: T10, ROCK2 (Homo sapiens, UniProt O75116)
T10 construct: host or cells: E. coli host derived from BL21, T7 phage lysate
Summary of the method: as §1

PRKCH = biological target: T11, PRKCH (Homo sapiens, UniProt P24723)
T11 construct: purchased Ambit Biosciences Corp (KinomeScan); host or cells: E. coli host derived from BL21, infected with T7 phage
Summary of the method: as §1

PLK3 = biological target: T12, PLK3 (Homo sapiens, UniProt Q9H4B4)
T12 construct: purchased Ambit Biosciences Corp (KinomeScan); host or cells: E. coli host derived from BL21, infected with T7 phage
T12 sequence (Q9H4B4 whole entry): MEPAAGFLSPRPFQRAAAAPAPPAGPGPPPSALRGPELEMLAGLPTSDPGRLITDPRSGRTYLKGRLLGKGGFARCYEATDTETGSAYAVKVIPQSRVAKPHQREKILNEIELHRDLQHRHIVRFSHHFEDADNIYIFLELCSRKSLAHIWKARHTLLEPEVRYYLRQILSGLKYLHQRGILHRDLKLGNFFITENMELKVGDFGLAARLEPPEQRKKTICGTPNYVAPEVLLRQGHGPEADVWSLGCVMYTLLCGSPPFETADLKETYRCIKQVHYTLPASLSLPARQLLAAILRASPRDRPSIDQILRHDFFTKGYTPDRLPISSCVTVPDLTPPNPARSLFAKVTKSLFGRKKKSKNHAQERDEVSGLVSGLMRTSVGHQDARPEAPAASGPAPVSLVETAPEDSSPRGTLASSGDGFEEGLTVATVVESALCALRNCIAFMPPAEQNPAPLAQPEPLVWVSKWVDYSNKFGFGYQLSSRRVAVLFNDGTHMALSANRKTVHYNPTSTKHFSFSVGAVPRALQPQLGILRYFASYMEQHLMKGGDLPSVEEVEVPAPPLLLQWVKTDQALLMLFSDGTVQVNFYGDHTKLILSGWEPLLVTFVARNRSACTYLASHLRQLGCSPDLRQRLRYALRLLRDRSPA
Summary of the method: as §1

CDK5 = biological target: T13, CDK5 (Homo sapiens, UniProt Q00535)
T13 construct: host or cells: T7 phage in E. coli (BL21-derived)
Summary of the method: as §1

p38-alpha = biological target: T14, p38-alpha (Homo sapiens, UniProt Q16539)
T14 construct: host or cells: E. coli host derived from the BL21 strain, infected with T7 phage
T14 sequence (Q16539 whole entry): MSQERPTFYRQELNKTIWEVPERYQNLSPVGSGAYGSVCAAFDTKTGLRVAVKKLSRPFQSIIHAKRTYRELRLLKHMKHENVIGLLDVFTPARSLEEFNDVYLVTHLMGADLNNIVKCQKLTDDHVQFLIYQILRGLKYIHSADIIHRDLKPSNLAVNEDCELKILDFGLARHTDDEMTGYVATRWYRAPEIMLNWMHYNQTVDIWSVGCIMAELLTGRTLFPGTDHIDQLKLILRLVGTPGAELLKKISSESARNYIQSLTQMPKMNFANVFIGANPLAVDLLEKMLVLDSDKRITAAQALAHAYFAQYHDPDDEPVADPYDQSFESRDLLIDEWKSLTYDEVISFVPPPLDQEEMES
Summary of the method: as §1

NEK6 = biological target: T15, NEK6 (Homo sapiens, UniProt Q9HC98)
T15 construct: host or cells: T7 phage in E. coli host derived from BL21
Summary of the method: as §1

PYK2 = biological target: T16, PYK2 (Homo sapiens, UniProt Q14289)
T16 construct: host or cells: E. coli host derived from BL21, T7 phage lysate
T16 sequence (Q14289 whole entry): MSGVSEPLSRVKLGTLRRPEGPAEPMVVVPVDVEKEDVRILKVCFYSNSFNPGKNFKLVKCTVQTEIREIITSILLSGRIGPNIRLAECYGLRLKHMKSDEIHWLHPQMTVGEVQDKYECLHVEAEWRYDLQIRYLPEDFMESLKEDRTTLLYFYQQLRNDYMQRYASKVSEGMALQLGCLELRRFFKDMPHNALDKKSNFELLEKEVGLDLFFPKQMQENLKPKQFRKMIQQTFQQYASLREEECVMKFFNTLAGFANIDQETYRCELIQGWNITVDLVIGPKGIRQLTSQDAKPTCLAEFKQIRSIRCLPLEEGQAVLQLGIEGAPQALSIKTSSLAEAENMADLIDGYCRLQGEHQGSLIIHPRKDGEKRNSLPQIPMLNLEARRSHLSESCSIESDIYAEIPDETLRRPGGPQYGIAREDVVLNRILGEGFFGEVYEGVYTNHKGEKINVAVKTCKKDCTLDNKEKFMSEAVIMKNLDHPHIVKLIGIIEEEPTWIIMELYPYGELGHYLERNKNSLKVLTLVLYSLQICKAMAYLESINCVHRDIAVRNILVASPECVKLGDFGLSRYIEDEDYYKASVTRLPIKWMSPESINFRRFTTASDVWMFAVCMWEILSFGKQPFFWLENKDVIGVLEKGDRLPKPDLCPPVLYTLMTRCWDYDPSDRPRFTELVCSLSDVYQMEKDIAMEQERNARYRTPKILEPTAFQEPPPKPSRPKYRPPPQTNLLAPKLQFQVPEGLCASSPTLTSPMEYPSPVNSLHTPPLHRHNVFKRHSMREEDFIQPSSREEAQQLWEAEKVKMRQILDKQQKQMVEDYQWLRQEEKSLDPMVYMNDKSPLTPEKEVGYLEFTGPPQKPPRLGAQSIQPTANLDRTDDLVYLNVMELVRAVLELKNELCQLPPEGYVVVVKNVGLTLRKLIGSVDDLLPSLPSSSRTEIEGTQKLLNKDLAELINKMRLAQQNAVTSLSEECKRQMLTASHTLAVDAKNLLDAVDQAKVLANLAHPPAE
Summary of the method: as §1

FLT3 = biological target: T17, FLT3 (Homo sapiens, UniProt P36888)
T17 construct: host or cells: E. coli host derived from BL21, infected with T7 phage
Summary of the method: as §1

ACVR2A = biological target: T18, ACVR2A (Homo sapiens, UniProt P27037)
T18 construct: host or cells: E. coli host derived from BL21 (T7 phage lysate)
Summary of the method: as §1

PCTK2 = biological target: T19, PCTK2 (Homo sapiens, UniProt Q00537)
T19 construct: host or cells: E. coli host derived from the BL21 strain, infected with T7 phage
T19 sequence (Q00537 whole entry): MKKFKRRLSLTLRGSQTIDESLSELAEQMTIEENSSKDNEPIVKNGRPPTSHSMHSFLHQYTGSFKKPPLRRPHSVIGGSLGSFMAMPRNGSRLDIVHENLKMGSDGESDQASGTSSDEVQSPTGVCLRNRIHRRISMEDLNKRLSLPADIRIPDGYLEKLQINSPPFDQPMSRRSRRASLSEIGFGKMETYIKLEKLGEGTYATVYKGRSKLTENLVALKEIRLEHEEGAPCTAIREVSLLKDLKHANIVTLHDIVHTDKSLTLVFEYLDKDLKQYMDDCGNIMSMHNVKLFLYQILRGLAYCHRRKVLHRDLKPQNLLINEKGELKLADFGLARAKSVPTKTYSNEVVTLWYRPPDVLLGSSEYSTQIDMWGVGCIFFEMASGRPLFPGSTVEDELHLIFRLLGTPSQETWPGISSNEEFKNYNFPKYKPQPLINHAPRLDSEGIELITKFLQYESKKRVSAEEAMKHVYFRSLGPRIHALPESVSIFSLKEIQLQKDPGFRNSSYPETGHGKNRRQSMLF
Summary of the method: as §1

ZAP70 = biological target: T20, ZAP70 (Homo sapiens, UniProt P43403)
T20 construct: host or cells: E. coli host derived from the BL21 strain, infected with T7 phage
Summary of the method: as §1

MAP4K5 = biological target: T21, MAP4K5 (Homo sapiens, UniProt Q9Y4K4)
T21 construct: host or cells: E. coli derived from BL21, infected with T7 phage
T21 sequence (Q9Y4K4 whole entry): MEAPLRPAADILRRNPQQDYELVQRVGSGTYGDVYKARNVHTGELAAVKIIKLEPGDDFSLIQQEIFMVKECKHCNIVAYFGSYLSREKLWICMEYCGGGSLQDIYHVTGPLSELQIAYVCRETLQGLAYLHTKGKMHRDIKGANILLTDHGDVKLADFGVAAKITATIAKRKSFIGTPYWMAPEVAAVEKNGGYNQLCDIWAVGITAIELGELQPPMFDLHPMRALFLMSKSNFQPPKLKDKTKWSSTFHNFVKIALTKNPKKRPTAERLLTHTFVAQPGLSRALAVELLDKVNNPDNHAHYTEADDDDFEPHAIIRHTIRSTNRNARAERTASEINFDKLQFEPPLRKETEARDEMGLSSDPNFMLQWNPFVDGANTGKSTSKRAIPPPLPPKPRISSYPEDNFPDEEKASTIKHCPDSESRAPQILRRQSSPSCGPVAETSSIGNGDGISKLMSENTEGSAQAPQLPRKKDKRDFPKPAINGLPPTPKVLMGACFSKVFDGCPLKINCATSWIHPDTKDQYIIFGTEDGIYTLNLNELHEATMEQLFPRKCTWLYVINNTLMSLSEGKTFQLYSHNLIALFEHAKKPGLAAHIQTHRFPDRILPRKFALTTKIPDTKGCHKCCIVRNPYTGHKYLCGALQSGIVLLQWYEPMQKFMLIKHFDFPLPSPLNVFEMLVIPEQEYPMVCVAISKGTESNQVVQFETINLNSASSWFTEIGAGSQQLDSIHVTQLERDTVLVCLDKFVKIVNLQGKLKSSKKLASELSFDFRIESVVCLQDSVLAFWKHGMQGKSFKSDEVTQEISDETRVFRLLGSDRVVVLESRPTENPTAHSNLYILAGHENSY
Summary of the method: as §1

PIK3CD = biological target: T22, PIK3CD (Homo sapiens, UniProt O00329)
T22 construct: purchased Ambit Biosciences Corp (KinomeScan); host or cells: E. coli host derived from BL21, infected with T7 phage
Summary of the method: as §1

C#Cc1cccc(Nc2ncnc3cc(OC)c(OCCCN4CCOCC4)cc23)c1 [NRC-2694, N-(3-ethylnylphenyl)-7-methoxy-6-[3-(4-morpholinyl)propoxy]-4-quinazolinamine]
% Ctrl @ 10000 nM (KIT (V559D, T670I)): 28 % Ctrl | % Ctrl @ 10000 nM (AXL): 25 % Ctrl | % Ctrl @ 10000 nM (ACVR2B): 63 % Ctrl | % Ctrl @ 10000 nM [1]: 72 % Ctrl | % Ctrl @ 10000 nM (MINK): 16 % Ctrl | % Ctrl @ 10000 nM (TNNI3K): 7.6 % Ctrl | % Ctrl @ 10000 nM (FGFR4): 69 % Ctrl | % Ctrl @ 10000 nM (EGFR (E746-A750del)): 0 % Ctrl | % Ctrl @ 10000 nM (MERTK): 48 % Ctrl | % Ctrl @ 10000 nM (ROCK2): 38 % Ctrl | % Ctrl @ 10000 nM (PRKCH): 83 % Ctrl | % Ctrl @ 10000 nM (PLK3): 97 % Ctrl | % Ctrl @ 10000 nM (CDK5): 100 % Ctrl | % Ctrl @ 10000 nM (p38-alpha): 89 % Ctrl | % Ctrl @ 10000 nM (NEK6): 94 % Ctrl | % Ctrl @ 10000 nM (PYK2): 71 % Ctrl | % Ctrl @ 10000 nM (FLT3): 49 % Ctrl | % Ctrl @ 10000 nM (ACVR2A): 92 % Ctrl | % Ctrl @ 10000 nM (PCTK2): 72 % Ctrl | % Ctrl @ 10000 nM (ZAP70): 100 % Ctrl | % Ctrl @ 10000 nM (MAP4K5): 23 % Ctrl | % Ctrl @ 10000 nM (PIK3CD): 89 % Ctrl
